Results: patent publication US20180215788A1, “Compounds and Compositions for the Treatment of Ophthalmic Disorders” (Shire Human Genetic Therapies, Inc., priority 2017, published 2018)
*1 amine or outer side, *2 acyl side, *3 side chain or, on linkers, in order; H or OH if unused. Where a SMILES comes first, the peptide text is derived from it. [ ]: non-standard residue; d: D form. The star is where a group is joined. dOrn(Me2) = CN(C)CCC[C@@H](N)C(=O)O; X1 = O=C([C@H]1CCCN([*:1])C1)[*:2]; Hyp = O=C(O)[C@@H]1C[C@@H](O)CN1; NMeL = CN[C@@H](CC(C)C)C(=O)O; Octanoyl = CCCCCCCC(=O)*

Test system: normotensive dogs
Experiment: Pharmacodynamics (IOP) after single topical ocular dose of SEQ ID NO:1, latanoprost or their combination
Type: in vivo
Settings: for maximum percent change in intraocular pressure compared to contralateral eye / intraocular pressure: female dogs; for maximum percent change in intraocular pressure compared to contralateral eye: 0.03% SEQ ID NO:1, 0.005% latanoprost, alone or adjunctive, FIG. 6; for intraocular pressure: topical ocular 0.005% latanoprost, 0.03% SEQ ID NO:1, alone or adjunctively, FIG. 7
Method: A study of the pharmacodynamics following a single ascending topical ocular dose of SEQ ID NO:1; latanoprost; or a latanoprost/SEQ ID NO:1 combination was undertaken in normotensive dogs.
Animals were not fasted prior to dose administration. As appropriate, latanoprost was administered first followed by SEQ ID NO:1 approximately 5 minutes later. […] After the dose was administered, the eye was allowed to close naturally. Each animal was then restrained for approximately 1 minute to prevent rubbing of the eyes. The right eye was dosed first. All measurement and collection times were based on the time of dosing of the second (left) eye.
Following arrival, animals were preconditioned (trained) to IOP measurement procedures three times daily (i.e. 07:00, 12:00, and 15:00±0.5 hours) at least three times/week for approximately seven weeks prior to Phase 1. Three readings/eye were taken using a TonoVet.
Intraocular pressure was measured at −1, 0 (predose), 1, 2, 4, 8, 12, 24, and 48 hours postdose (following the last dose, as applicable) for all animals in Group 1, Phases 1 through 10. Three readings/eye were taken using a TonoVet.
Animals selected for pharmacodynamics (Group 1) were administered SEQ ID NO:1 (12, 35, 105, or 210 μg/eye), latanoprost (0.35, 0.875, or 1.75 μg/eye), and latanoprost/SEQ ID NO:1 in combination to the right eye (OD) and vehicle or phosphate-buffered saline (PBS) to the left eye (OS).
Intraocular pressure (IOP) was measured at various time points from pre-dose to 48 hours post-dose.
Pharmacodynamic animals (Group 1) were unilaterally treated with a single topical ocular dose of latanoprost (0.001, 0.0025, and 0.005%), followed by approximately 5 minutes later with a dose of SEQ ID NO:1 0.03%, in the right eye (OD) only.

| Structure (SMILES) | maximum percent change in intraocular pressure compared to contralateral eye [%] | intraocular pressure [mmHg] | maximal delta decrease (Emax) in IOP, latanoprost dose response (dogs, latanoprost 0.001, 0.0025, 0.005% with SEQ ID NO:1 0.03%, FIG. 4) |
| --- | --- | --- | --- |
| CCCCCCCC(=O)N1CCC[C@H](C(=O)N[C@@H](Cc2ccccc2)C(=O)N[C@H](CCCN(C)C)C(=O)N[C@@H](CC(C)C)C(=O)N2C[C@H](O)C[C@H]2C(=O)N(C)[C@@H](CC(C)C)C(=O)N[C@@H](CC(=O)O)C(=O)N[C@@H](CCCNC(=N)N)C(=O)N[C@H](C(N)=O)[C@@H](C)CC)C1 [SEQ ID NO:1, Occ-Sni-Phe-orn(Me2)-Leu-Hyp-Nml-Asp-Arg-Ile-NH2] (Octanoyl-[X1]F[dOrn(Me2)]L[Hyp][NMeL]DRI-NH2) | 16 | 12 |  |
| CC(C)OC(=O)CCC/C=C\C[C@@H]1[C@@H](CC[C@@H](O)CCc2ccccc2)[C@H](O)C[C@@H]1O [latanoprost] | 21 | 12 | greater with increasing latanoprost concentrations, in combination with SEQ ID NO:1 |
